In patent US20110301046A1, “Methods of Determining Efficacy of Glucocorticoid Treatment of Eosinophilic Esophagitis” (Children's Hospital Medical Center, priority 2008, published 2011):

Columns and labels:
[1] = system: serpinb4 transcript in TE-7 cells; assay: IL-13-induced serpinb4 transcript levels in TE-7 cells, real-time PCR; assay type: cell-based; details: IL-13 100 ng/ml, 24 h
Protocol: (§1) FIG. 4 depicts IL-13 induced transcript levels of two representative genes are reversed by FP treatment. TE-7 cells were treated as indicated with IL-13 (100 ng/ml) and/or the indicated dose of FP for 24 h. RNA was isolated and cDNA synthesis was performed. Transcript levels of eotaxin-3 (A) and serpinb4 (B) were determined by real-time PCR analysis and normalized to GAPDH levels. *, p<0.05; **, p<0.01.
(§2) IL-13 signaling in esophageal epithelial cells is known to have a role in EE pathogenesis by inducing the EE transcriptome. […] When TE-7 cells are treated with IL-13, an increase in eotaxin-3 and serpinb4 transcript levels is observed (FIG. 4A, B).

[2] = system: FKBP51 transcript in peripheral blood mononuclear cells; assay: FKBP51 induction in PBMCs cultured ex vivo, real-time PCR; assay type: cell-based, human; details: all FP concentrations tested, 24 h, normalized to GAPDH
Protocol: (§3) FIG. 3 depicts FKBP51 induction following glucocorticoid treatment. (A) Peripheral blood mononuclear cells (PBMCs) were isolated from a patient blood sample and cultured ex vivo. The cells were treated with the indicated concentration of FP for 24 h. RNA was isolated, cDNA synthesis was performed, and real-time PCR analysis was conducted. FKBP51 transcript levels were normalized to GAPDH levels. (B) Primary esophageal epithelial cells were cultured from the biopsy of an EE patient with active disease. Cells were treated or not with 10^−6 M FP for 24 h. Protein extracts were prepared and subjected to SDS-PAGE and western blot analysis for FKBP51 and actin (left). FKBP51 and actin levels were quantified by densitometry analysis. The ratio of FKBP51 to actin is shown (right). (C) TE-7 cells were treated with the indicated dose of FP for 24 h. Protein extracts were then prepared and subjected to SDS-PAGE and western blot analysis for FKBP51 and actin (top). Densitometry analysis was performed and the fold-change in the ratio of FKBP51 to actin expression is graphed (bottom). (D) TE-7 cells were treated for the indicated amount of time with 10^−7 M FP. RNA was isolated, cDNA synthesis was performed, and real-time PCR analysis to detect FKBP51 and GAPDH transcripts was done (left). […]

[3] = system: FKBP51 protein in primary esophageal epithelial cells; assay: FKBP51 protein in primary esophageal epithelial cells from an EE patient, western blot; assay type: cell-based, human; details: 10^-6 M FP, 24 h, FKBP51 to actin ratio
Protocol: as §3

[4] = system: eotaxin-3 promoter; assay: Eotaxin-3 promoter luciferase reporter in transfected TE-7 cells, dual luciferase assay; assay type: cell-based
Protocol: FIG. 5 depicts increased baseline FKBP51 levels impact glucocorticoid repression of IL-13-induced eotaxin-3 promoter activity. (A) Schematics of constructs used in this study. GRE, glucocorticoid response element. CMV, cytomegalovirus promoter. (B) Cells were transfected with Phrl-TK, pEotaxin-3, and Pcdna3.1 or Pfkbp51. Cells were then treated with IL-13 ([…]) and/or FP (10^−6 M) for 24 h. Protein lysates were then collected, and firefly and Renilla luciferase activity for each sample were quantified by dual luciferase assay (Promega). Eotaxin-3 promoter activity is expressed as the ratio of firefly to Renilla luciferase activity. **, p<0.01; ***, p<0.001.
(§4) Cells were transfected with Phrl-TK and pEotaxin-3 (A) or pEotaxin-3 3′UTR (B) for 48 h. Cells were then treated with IL-13 (100 ng/ml) and/or FP (10^−6 M) for 24 h. Protein lysates were then collected, and firefly and Renilla luciferase activity for each sample was quantified by dual luciferase assay (Promega). Eotaxin-3 promoter activity is expressed as the ratio of firefly to Renilla luciferase activity. **, p<0.01.
(§5) The contribution of the promoter and 3′ UTR sequences of eotaxin-3 to the control of its gene expression following IL-13 and FP treatment, was tested using TE-7 cells transiently transfected with a luciferase reporter construct. The cells were transfected with a luciferase reporter construct containing either 800 bp of the eotaxin-3 promoter 5′ of the firefly luciferase gene in the Pg13-Basic vector or a plasmid containing 200 bp of the eotaxin-3 3′ UTR downstream of the firefly luciferase gene in the Pg13-Promoter vector (FIG. 5A). The same cells were co-transfected with a plasmid containing Renilla luciferase under a constitutive promoter (Phrl-TK) that served as a control for transfection efficiency. Part of the observed decrease in IL-13 induced eotaxin-3 Mrna levels following FP treatment can be mediated through modulation of the promoter activity due to the presence of a putative glucocorticoid-responsive element (GRE) in this region (FIG. 5A).
To test whether increased FKBP51 levels impacted the FP-mediated decrease in IL-13-induced eotaxin-3 promoter activity, TE-7 cells were transfected with either empty vector (Pcdna3.1) or an expression construction that contained FKBP51 under the control of the CMV promoter (Pfkbp51, FIG. 5A) to simulate high baseline levels of FKBP51. […] However, when cells were transfected with the FKBP51 expression vector, the FP-mediated decrease in IL-13 induced eotaxin-3 promoter activity was abolished (FIG. 5B).

[5] = system: FKBP51 transcripts; assay: Whole genome microarray analysis of esophageal biopsy samples from EE patients treated with swallowed FP; assay type: in vivo, human; details: esophageal biopsies
Text: FIG. 1 depicts the identification of glucocorticoid-regulated genes in EE patients that respond to FP treatment. (A) Analysis of microarray data to identify glucocorticoid-regulated transcripts. RNA from distinct patient populations was subjected to chip analysis using Affymetrix Human Genome U 133 Plus 2.0 GeneChips®. The groups are composed of the following numbers of patients: normal (NL), n=14; EE, n=14; EE, FP responders (EE R), n=13; EE, FP non-responders, n=8. Using the average expression for each patient group, the subset of genes differentially regulated between normal (NL) and EE patients was identified by t-test (p<0.01). The subset of genes differentially regulated between normal patients and EE patients that respond to FP (EE R) was then identified by 2-fold change filter. Subsequently, the subset of genes differentially regulated between NL and EE patients was subtracted from those differentially regulated between NL and EE R. These transcripts were then subjected to ANOVA, p<0.01. […] The average expression level for each patient group (normal, EE, Flovent® (fluticasone propionate) responders, Flovent® non-responders) is expressed as fold-change compared to the normal patients. […] The transcript levels for the indicated gene for each patient population was quantified by real-time PCR and normalized to glyceraldehyde-3-phosphate dehydrogenase (GAPDH) levels. […]

[6] = system: eotaxin-3 transcript in TE-7 cells; assay: IL-13-induced eotaxin-3 transcript levels in TE-7 cells, real-time PCR; assay type: cell-based; details: IL-13 100 ng/ml, 24 h
Protocol: as §1, §2

[7] = system: FKBP51 in TE-7 cells; assay: FKBP51 induction in TE-7 esophageal cell line, western blot and real-time PCR; assay type: cell-based
Protocol: FIG. 3 depicts FKBP51 induction following glucocorticoid treatment. (A) Peripheral blood mononuclear cells (PBMCs) were isolated from a patient blood sample and cultured ex vivo. The cells were treated with the indicated concentration of FP for 24 h. RNA was isolated, cDNA synthesis was performed, and real-time PCR analysis was conducted. FKBP51 transcript levels were normalized to GAPDH levels. (B) Primary esophageal epithelial cells were cultured from the biopsy of an EE patient with active disease. Cells were treated or not with 10^−6 M FP for 24 h. Protein extracts were prepared and subjected to SDS-PAGE and western blot analysis for FKBP51 and actin (left). FKBP51 and actin levels were quantified by densitometry analysis. The ratio of FKBP51 to actin is shown (right). (C) TE-7 cells were treated with the indicated dose of FP for 24 h. Protein extracts were then prepared and subjected to SDS-PAGE and western blot analysis for FKBP51 and actin (top). Densitometry analysis was performed and the fold-change in the ratio of FKBP51 to actin expression is graphed (bottom). (D) TE-7 cells were treated for the indicated amount of time with 10^−7 M FP. RNA was isolated, cDNA synthesis was performed, and real-time PCR analysis to detect FKBP51 and GAPDH transcripts was done (left). In a separate experiment, protein extracts were prepared and then subjected to SDS-PAGE and western blot analysis for FKBP51 and actin (right, top). Following densitometry analysis, the fold-change in the ratio of FKBP51 to actin signal was graphed (right, bottom)*, p<0.05; **, p<0.01. To further study the role of FKBP51 in epithelial cells, the TE-7 esophageal cell line was used to understand the expression patterns of FKBP51 following FP treatment. […] The kinetics of FKBP51 Mrna and protein expression were examined following FP treatment. […] Similarly, FKBP51 protein levels in TE-7 cells increased in a time dependent manner, with maximum levels of protein observed by 24 h following treatment.

[8] = system: eotaxin-3 3' UTR; assay: Eotaxin-3 3' UTR luciferase reporter in transfected TE-7 cells, dual luciferase assay; assay type: cell-based; details: IL-13 100 ng/ml and/or FP 10^-6 M, 24 h, FIG. 6B
Protocol: as §4, §5

[9] = system: FKBP51, KRT7, H19 transcripts; assay: Real-time PCR analysis of glucocorticoid-regulated genes in patient esophageal biopsies; assay type: in vivo, human
Text: FIG. 2 depicts the verification of transcript levels of glucocorticoid-regulated genes by real-time PCR analysis. (A) Microarray data for three glucocorticoid-regulated genes. The average expression level for each patient group (normal, EE, Flovent® (fluticasone propionate) responders, Flovent® non-responders) is expressed as fold-change compared to the normal patients. (B) Real-time PCR analysis for three glucocorticoid-regulated genes. The transcript levels for the indicated gene for each patient population was quantified by real-time PCR and normalized to glyceraldehyde-3-phosphate dehydrogenase (GAPDH) levels. […] The expression pattern of three of the identified candidate genes was validated by real-time PCR analysis.

[10] = average, FIG. 2B, real-time PCR

Row | Compound | IL-13 mediated increase in serpinb4 transcript levels on concomitant FP treatment ([1]; indicated doses of FP) | FKBP51 transcript levels in isolated PBMCs [2] | increase in FKBP51 protein in primary esophageal epithelial cells [3] | FP-mediated decrease in IL-13 induced eotaxin-3 promoter activity in cells transfected with FKBP51 expression vector ([4]; FKBP51 expression vector, IL-13 10 ng/ml, FP 10^-6 M, 24 h, FIG. 5B) | reduction of FP-mediated inhibition of IL-13-induced eotaxin-3 expression by FKBP51 overexpression ([4]; FKBP51 overexpression in TE-7 cells) | IL-13-induced eotaxin-3 promoter activity upon concomitant FP treatment ([4]; IL-13 100 ng/ml, FP 10^-6 M, 24 h, FIG. 6A) | reduction of IL-13-induced eotaxin-3 promoter activity by concomitant FP ([4]; empty vector, IL-13 10 ng/ml, FP 10^-6 M, 24 h, FIG. 5B) | increase in FKBP51 transcripts in FP-responders compared to control and active EE individuals [5] | IL-13 mediated increase in eotaxin-3 transcript levels on concomitant FP treatment ([6]; indicated doses of FP) | FKBP51 transcript levels in TE-7 cells over time ([7]; 10^-7 M FP, real-time PCR) | time of maximum FKBP51 protein levels in TE-7 cells ([7]; 10^-7 M FP, western blot) | FKBP51 protein levels in TE-7 cells in response to FP dose ([7]; various doses of FP, 24 h, western blot) | modulation of mRNA stability via eotaxin-3 3' UTR sequence [8] | FKBP51 levels in FP responders compared to normal patients [9, 10] | FKBP51 transcript levels in FP non-responder patients compared to normal patients [9, 10] | FKBP51, KRT7 and H19 transcript levels in FP responder patients compared to untreated patients ([9]; microarray and real-time PCR) | serpinb4 transcript levels on IL-13 treatment ([1]; TE-7 cells) | increase in eotaxin-3 promoter activity upon IL-13 treatment ([4]; empty vector, IL-13 10 ng/ml, 24 h, FIG. 5B) | eotaxin-3 transcript levels on IL-13 treatment ([6]; TE-7 cells)
1 | CCC(=O)O[C@]1(C(=O)SCF)[C@H](C)C[C@H]2[C@@H]3C[C@H](F)C4=CC(=O)C=C[C@]4(C)[C@@]3(F)[C@@H](O)C[C@@]21C [FP, S-fluoromethyl-6α,9-difluoro-11β-hydroxy-16α-methyl-3-oxoandrosta-1,4-diene-17β-carbothioate, 17-propionate] | decreased in a dose-dependent manner | significant increase | approximately 3 fold | abolished | 50% | decrease | 50% | 4 fold | decreased in a dose-dependent manner | increased by 4 h post treatment and were further increased by 8 h, after which no further increase was observed | ≤ 24 h | dose-dependent increase | did not show any modulation | 4 fold | 1.5 fold | increased transcript levels | – | – | –
2 | IL-13: cytokine used to induce eotaxin-3 and serpinb4 in TE-7 esophageal epithelial cells | – | – | – | – | – | – | – | – | – | – | – | – | did not show any modulation | – | – | – | increase | 2 fold | increase
